Among the data in patent publication US7524823B2, “Macrolides” (Basilea Pharmaceutica AG, priority 2005, dated 2009) are MIC values, retold here.

Molecules are shown by their SMILES. Values after ≈ are worked out from the molar mass of the structure shown.

Common to all, as to format: cell-based
The test system of test [1] is Escherichia coli ATCC 25922. Description: MIC by broth microdilution (CAMHB, NCCLS). The conditions noted are these: code C: Escherichia coli ATCC 25922. The protocol: (§1) MIC values for non-anaerobes were obtained by broth microdilution using CAMHB (BBL) according to NCCLS guidelines (National Committee for Clinical Laboratory Standards. Methods for dilution antimicrobial susceptibility tests for bacteria that grow aerobically, 5th ed. Approved standard M7-A6. NCCLS, Wayne, Pa., 2003). Drugs were dissolved in DMSO prior to dispensing into 96-well microtitre plates; the concentration of DMSO in assay wells never exceeded 2% (v/v). CAMHB was supplemented with 5% (v/v) horse serum (Sigma, cat. no. H-1270) in lieu of laked horse blood for cultivation of Streptococcus pneumoniae, and with 5% (v/v) Fildes enrichment (BBL, cat. no. 220810) supernate in lieu of Haemophilus Test Medium and additives for cultivation of Haemophilus influenzae (Pankuch G A, Hoellman D B, Lin G, Bajaksouzian S, Jacobs M R, Appelbaum P C. Activity of HMR 3647 compared to those of five agents against Haemophilus influenzae and Moraxella catarrhalis by MIC determination and time-kill assay. Antimicrob. Agents Chemother. November 1998; 42(11): 3032-4). Activities expressed as the minimal inhibitory concentrations (MICs) (μg/ml) are given in the following Table 3, and the microorganisms used for testing are listed in Table 2 below.
For orientation: Broth dilution looks for growth in wells or tubes with falling amounts of substance.

For test [2], the system named is Staphylococcus aureus 1086. Put plainly: MIC by broth microdilution (CAMHB, NCCLS). Particulars: code B: Staphylococcus aureus 1086. The protocol:
as §1

Test [3] has as its system Staphylococcus aureus ATCC 29213. Description: MIC by broth microdilution (CAMHB, NCCLS). The conditions noted are these: code A: Staphylococcus aureus ATCC 29213. On the procedure:
as §1

Test [4] has as its system Streptococcus pneumoniae 1/1. Description: MIC by broth microdilution (CAMHB + 5% horse serum, NCCLS). Particulars: code D: Streptococcus pneumoniae 1/1. On the procedure:
as §1

Test [5] concerns Streptococcus pneumoniae SL199T. The description is as above. Particulars: code E: Streptococcus pneumoniae SL199T. The protocol: as §1
Test [6] concerns Streptococcus pneumoniae Tupelo. The description is as above. Particulars: code F: Streptococcus pneumoniae Tupelo. On the procedure: as §1
The subject of test [7] is Haemophilus influenzae 12214. Put plainly: MIC by broth microdilution (CAMHB + 5% Fildes enrichment, NCCLS). Particulars: code G: Haemophilus influenzae 12214. On the procedure:
as §1

The test system of test [8] is Haemophilus influenzae QK50. Described as above. The conditions noted are these: code H: Haemophilus influenzae QK50. On the procedure: as §1
Test [9] deals with Propionibacterium acnes EG7NS. Put plainly: MIC by anaerobic broth microdilution (WCB, NCCLS). The conditions noted are these: code I: Propionibacterium acnes EG7NS; anaerobic, 35-37° C., 48 h. On the procedure: (§2) MIC values towards strains of propionibacteria were obtained by broth microdilution using WCB (Anaerobe Broth MIC, Difco) according to NCCLS guidelines (National Committee for Clinical Laboratory Standards. Methods for anti-microbial susceptibility testing of anaerobic bacteria, 5th ed.; approved standard. NCCLS publication no. M11-A5. NCCLS, Wayne, Pa., 2001). Microtitre plates were loaded into 7-L GENbox anaerobic incubation jars (BioMérieux, cat. no. 96 128) fitted with anaerobic atmosphere generators (BioMérieux, cat. no. 96 124) and a Dry Anaerobic Indicator Strip (BBL, cat. no. 271051). Under these conditions, an O2 concentration <0.1% was achieved by 2.5 h, and a CO2 concentration >15% by 24 h. MIC values were read after incubation at 35-37° C. for 48 h (Table 3).

Test [10] has as its system Propionibacterium acnes SW101T. Put plainly: MIC by anaerobic broth microdilution (WCB, NCCLS). Particulars: code K: Propionibacterium acnes SW101T, 35-37° C., 48 h. The protocol: as §2

For the compound `CC[C@H]1OC(=O)[C@H](C)[C@@H](O[C@H]2C[C@@](C)(OC)[C@@H](O)[C@H](C)O2)[C@H](C)[C@@H](O[C@@H]2O[C@H](C)C[C@H](N(C)C)[C@H]2O)[C@](C)(OC)C[C@@H](C)C(=O)[C@H](C)[C@H]2[C@H](SCCn3cnc4cncnc43)C(=O)O[C@@]21C` [Example 20], the MIC in test [1] is above 32 µg/mL; in test [2], above 32 µg/mL; in [3], 1 µg/mL (≈ 1.05 µM); in [4], “<=0.06 μg/ml”; in test [5], 0.5 µg/mL; in test [6], 1 µg/mL. Also, the MIC was 1 µg/mL in test [7], 1 µg/mL in test [8], “<=0.06 μg/ml” in [9] and 8 µg/mL (≈ 8.42 µM) in [10].

`CC[C@H]1OC(=O)[C@H](C)[C@@H](O[C@H]2C[C@@](C)(OC)[C@@H](O)[C@H](C)O2)[C@H](C)[C@@H](O[C@@H]2O[C@H](C)C[C@H](N(C)C)[C@H]2O)[C@](C)(OC)C[C@@H](C)C(=O)[C@H](C)[C@H]2[C@H](SCCn3cc(C)c(=O)[nH]c3=O)C(=O)O[C@@]21C` [Example 21]: the MIC in [1] is above 32 µg/mL; in test [2], above 32 µg/mL; in test [3], 2 µg/mL (≈ 2.09 µM); in [4] it was “<=0.06 μg/ml”; in [5] it was 0.5 µg/mL; in [6], 2 µg/mL. For the same compound, the MIC in [7] was 4 µg/mL; in [8], 4 µg/mL; in test [9] it was “<=0.06 μg/ml”; in test [10], 4 µg/mL (≈ 4.18 µM).

Regarding `CC[C@H]1OC(=O)[C@H](C)[C@@H](O[C@H]2C[C@@](C)(OC)[C@@H](O)[C@H](C)O2)[C@H](C)[C@@H](O[C@@H]2O[C@H](C)C[C@H](N(C)C)[C@H]2O)[C@](C)(OC)C[C@@H](C)C(=O)[C@H](C)[C@H]2[C@H](SCC(=O)Nc3ccc(C)c(C)c3)C(=O)O[C@@]21C` [Example 22], the MIC in [1] is above 32 µg/mL; in test [2], 32 µg/mL (≈ 33.2 µM); in test [3] it was 2 µg/mL (≈ 2.07 µM); in test [4], “<=0.06 μg/ml”; in test [5], 8 µg/mL; in [6], 8 µg/mL. Also, the MIC is 8 µg/mL in [7], 8 µg/mL in test [8], “<=0.06 μg/ml” in test [9] and 32 µg/mL (≈ 33.2 µM) in test [10].

`CC[C@H]1OC(=O)[C@H](C)[C@@H](O[C@H]2C[C@@](C)(OC)[C@@H](O)[C@H](C)O2)[C@H](C)[C@@H](O[C@@H]2O[C@H](C)C[C@H](N(C)C)[C@H]2O)[C@](C)(OC)C[C@@H](C)C(=O)[C@H](C)[C@H]2[C@H](SCC(=O)Nc3ccc(F)cc3F)C(=O)O[C@@]21C` [Example 23]: the MIC in test [1] is above 32 µg/mL; in test [2], 32 µg/mL (≈ 32.9 µM); in [3], 2 µg/mL (≈ 2.06 µM); in [4] it was “<=0.06 μg/ml”; in [5], 2 µg/mL; in [6], 2 µg/mL. In addition, the MIC was 4 µg/mL in test [7], 4 µg/mL in test [8], “<=0.06 μg/ml” in test [9] and 32 µg/mL (≈ 32.9 µM) in test [10].

With `CC[C@H]1OC(=O)[C@H](C)[C@@H](O[C@H]2C[C@@](C)(OC)[C@@H](O)[C@H](C)O2)[C@H](C)[C@@H](O[C@@H]2O[C@H](C)C[C@H](N(C)C)[C@H]2O)[C@](C)(OC)C[C@@H](C)C(=O)[C@H](C)[C@H]2[C@H](SCC(=O)Nc3ccc(C(=O)OC)c(OC)c3)C(=O)O[C@@]21C` [Example 24], the MIC in [1] is above 32 µg/mL; in test [2], “>=32 μg/ml”; in test [3] it was 1 µg/mL (≈ 0.975 µM); in [4] it was “<=0.06 μg/ml”; in test [5] it was 4 µg/mL; in test [6], 8 µg/mL. The MIC in [7] was 8 µg/mL; in [8], 8 µg/mL; in [9] it was “<=0.06 μg/ml”; in test [10] it was above 32 µg/mL.

Consider `CC[C@H]1OC(=O)[C@H](C)[C@@H](O[C@H]2C[C@@](C)(OC)[C@@H](O)[C@H](C)O2)[C@H](C)[C@@H](O[C@@H]2O[C@H](C)C[C@H](N(C)C)[C@H]2O)[C@](C)(OC)C[C@@H](C)C(=O)[C@H](C)[C@H]2[C@H](SCC(=O)Nc3cccc4cccnc34)C(=O)O[C@@]21C` [Example 25], for which the MIC in test [1] was above 32 µg/mL; in test [2] it was 16 µg/mL (≈ 16.2 µM); in [3] it was 1 µg/mL (≈ 1.01 µM); in test [4], “<=0.06 μg/ml”; in [5], 1 µg/mL; in [6] it was 0.5 µg/mL. Further, the MIC in test [7] was 4 µg/mL; in [8], 4 µg/mL; in test [9], “<=0.06 μg/ml”; in [10] it was 4 µg/mL (≈ 4.05 µM).

With `CC[C@H]1OC(=O)[C@H](C)[C@@H](O[C@H]2C[C@@](C)(OC)[C@@H](O)[C@H](C)O2)[C@H](C)[C@@H](O[C@@H]2O[C@H](C)C[C@H](N(C)C)[C@H]2O)[C@](C)(OC)C[C@@H](C)C(=O)[C@H](C)[C@H]2[C@H](SCC(=O)c3ccc(N(CC)CC)cc3)C(=O)O[C@@]21C` [Example 26], the MIC is above 32 µg/mL in [1]; above 32 µg/mL in test [2]; 2 µg/mL (≈ 2.01 µM) in test [3]; 0.125 µg/mL in test [4]; above 32 µg/mL in [5]; above 32 µg/mL in [6]. For the same compound, the MIC in test [7] was above 32 µg/mL; in test [8] it was 16 µg/mL; in [9], 0.125 µg/mL (≈ 0.126 µM); in test [10], above 32 µg/mL.

Take `CC[C@H]1OC(=O)[C@H](C)[C@@H](O[C@H]2C[C@@](C)(OC)[C@@H](O)[C@H](C)O2)[C@H](C)[C@@H](O[C@@H]2O[C@H](C)C[C@H](N(C)C)[C@H]2O)[C@](C)(OC)C[C@@H](C)C(=O)[C@H](C)[C@H]2[C@H](SCC(=O)c3ccc(OC)cc3OC)C(=O)O[C@@]21C` [Example 27]: the MIC was above 32 µg/mL in test [1]; above 32 µg/mL in test [2]; 1 µg/mL (≈ 1.02 µM) in test [3]; “<=0.06 μg/ml” in test [4]; 4 µg/mL in test [5]; 4 µg/mL in [6]. Further, the MIC in test [7] was 8 µg/mL; in test [8], 8 µg/mL; in [9] it was “<=0.06 μg/ml”; in [10] it was above 32 µg/mL.

Consider `CC[C@H]1OC(=O)[C@H](C)[C@@H](O[C@H]2C[C@@](C)(OC)[C@@H](O)[C@H](C)O2)[C@H](C)[C@@H](O[C@@H]2O[C@H](C)C[C@H](N(C)C)[C@H]2O)[C@](C)(OC)C[C@@H](C)C(=O)[C@H](C)[C@H]2[C@H](SCC(=O)c3csc4ccccc34)C(=O)O[C@@]21C` [Example 28], for which the MIC in test [1] is above 32 µg/mL; in test [2], 16 µg/mL (≈ 16.4 µM); in test [3], 2 µg/mL (≈ 2.04 µM); in test [4], 0.25 µg/mL; in test [5], 4 µg/mL; in [6], 4 µg/mL. Also, the MIC is 8 µg/mL in test [7], 16 µg/mL in test [8], 0.125 µg/mL (≈ 0.128 µM) in test [9] and 8 µg/mL (≈ 8.18 µM) in [10].

Take `CC[C@H]1OC(=O)[C@H](C)[C@@H](O[C@H]2C[C@@](C)(OC)[C@@H](O)[C@H](C)O2)[C@H](C)[C@@H](O[C@@H]2O[C@H](C)C[C@H](N(C)C)[C@H]2O)[C@](C)(OC)C[C@@H](C)C(=O)[C@H](C)[C@H]2[C@H](SCC(=O)c3ccc4c(c3)OCO4)C(=O)O[C@@]21C` [Example 29]: the MIC in test [1] was 32 µg/mL (≈ 33.1 µM); in test [2], above 32 µg/mL; in test [3] it was 1 µg/mL (≈ 1.03 µM); in [4] it was “<=0.06 μg/ml”; in [5], 4 µg/mL; in test [6], 4 µg/mL. In addition, the MIC in [7] is 4 µg/mL; in [8], 4 µg/mL; in test [9] it was “<=0.06 μg/ml”; in [10], above 32 µg/mL.
